Experimental findings from a melting point compilation (Tetko et al.) are described below.

SMILES strings stand for the structures.

`O=C(c1ccccc1)N1CCNCC1` gave a melting point of 63 to 64 °C. Under `c1ccc2cc(SSc3ccc4ccccc4c3)ccc2c1` stands 140 °C; under `C[C@]12CCC(=O)C[C@H]1CC[C@@H]1[C@@H]2CC[C@]2(C)CCC[C@@]12O`, 139 to 140 °C; under `COc1ccc(OCC(N)=O)cc1`, 114 to 116 °C. `O=C(O)c1ccc2cc(C(=O)O)ccc2c1` had a melting point of 300 °C.

Consider `CC(=O)OC1=C(C(C)C)C(=O)C2=C(C1=O)C1(C)CCCC(C)(C)C1C(OC(C)=O)C2OC(C)=O` (centres undefined), for which the melting point turned out to be 89 °C. For the compound `Cc1c(C)c(C)c(C(=O)Cc2ccccc2)c(C)c1C`, the melting point came out at 135 °C. As for `Cc1cccc(Cn2nc(C(C)(C)C)cc2-c2nnc(S)o2)c1`, the figure is 129 to 131 °C; as for `CCN(CC)C(=O)c1ccccc1CC(=O)c1ccccc1C`, 47 °C. `O=C=Nc1ccc(Cl)cc1Cl` showed a melting point of 59 to 60 °C. For `COc1ccc(C2=CCC3(C)C(CCC4C5CCC(O)C5(C)CCC43)C2)cc1` (centres undefined), the melting point was in the range of 163 to 169 °C. `O=C(CNc1cccc([N+](=O)[O-])c1)c1ccccc1`: the melting point came to 169 °C. With `O=C1CC[C@H]2CCc3ccccc3[C@@H]2O1`, the melting point is 138 to 141 °C.

In turn, `N#CCc1cc(C(F)(F)F)ccc1Cl` registered a melting point of 32 °C.

In turn, `N#Cc1ccc(OC2CCOCC2)nc1` registered a melting point of 134 to 135 °C. `CNc1ncnc(Cl)c1[N+](=O)[O-]`: the melting point was 134 to 139 °C. Turning to `O=Cc1csc(-c2ccccc2)n1`, the melting point is 51 to 52 °C. As for `c1ccc(-c2nc[nH]c2-c2ccccc2)cc1`, the figure is 232 °C; as for `Cc1nc(-c2ccc(C(F)(F)F)cc2)sc1CBr`, 64 to 65 °C. Under `O=C(O)CC(=O)O` stands 136 °C; under `COc1ccc(S(N)(=O)=O)c(OC)c1`, 168 °C. As for `NC(=O)c1c(F)ccc(F)c1F`, the figure is 117 °C. In the case of `CC1CC(=O)C(=O)C1C` (centres undefined), the melting point is 64 to 69 °C. `CCOC(=O)N1COCc2c1ccc1cc3ccc(NC)c(CO)c3nc21` showed a melting point of 146 °C. Turning to `C=C(C)C(=O)O`, the melting point was 16 °C. Compound `O=S1(=O)C=Cc2ccccc21` gave a melting point of 138 to 142 °C. On to `Cc1nc(/C(C#N)=N/Nc2ccc(Cl)cc2)sc1/N=N/c1ccccc1`, for which the melting point is 225 °C. Under `Nc1ccc(Nc2ccccc2)c2c1C(=O)c1ccccc1C2=O` stands 192 °C; under `O=C(O)c1cc2cccnc2s1`, 293 to 294 °C. Take `CC(=O)Oc1ccccc1`: the melting point is -30 °C. As for `Brc1ccc2[nH]ccc2c1`, the figure is 91 °C; as for `CCNS(=O)(=O)C(F)(F)C(F)(F)C(F)(F)C(F)(F)C(F)(F)C(F)(F)C(F)(F)C(F)(F)F`, 96 °C; as for `NC(=O)[C@@H]1CCCC[C@@H]1O` (relative stereo), 115 to 119 °C. As for `c1ccc(C2=NCCN2)cc1`, the figure is 96.5 °C. For `ClCc1cc(-c2cccs2)on1`, the melting point lay in the range of 32 to 34 °C.

Take `CC1=CC(=O)CC(=O)O1`: the melting point came out at 188 °C. `CCC(C(=O)O)c1ccc(-c2ccccc2)cc1` (centres undefined) had a melting point of 124 °C. In turn, `NC(C(=O)O)c1ccc(O)cc1` (centres undefined) yielded a melting point of 240 °C.

As to `CC(C)(C)C1CCCC1`, the melting point was -96 °C. As for `N#CC(C#N)=Nc1ccccc1`, the figure is 86 to 87 °C; as for `O=C(Cl)c1cccc(-c2nccs2)c1`, 80 to 80.5 °C.

In turn, `Nn1cnc2c(c(Br)nn2C2CCCCC2)c1=O` registered a melting point of 253 to 254 °C. Under `O=S1(=O)OC(c2cc(Cl)c(O)c(Br)c2)(c2cc(Cl)c(O)c(Br)c2)c2ccccc21` stands 230 °C; under `CC(C)(C)N(NC(=O)c1ccccc1)C(=O)c1cccc(F)c1`, 176 °C.

Consider `C=CC1CNC(=S)O1` (centres undefined), for which the melting point came to 50 °C.

Regarding `COc1cc(C)c(Cl)cc1S(N)(=O)=O`, the melting point is 170 °C. The compound `CCOC(=O)c1cnc2cc(-c3cccs3)nn2c1C` came in with a melting point of 151 to 153 °C.

`Cc1ccc(O)c2c1CCC2` showed a melting point of 82 to 83 °C. Compound `O=C(OCc1ccccc1)OCc1ccccc1` yielded a melting point of 29 to 33 °C. As for `N#CC1=C(N)Oc2c(c(C(F)(F)F)nn2-c2ccccc2)C1c1ccc(O)cc1` (centres undefined), the figure is 218 °C. On to `FC(Cl)C(F)Cl` (centres undefined), for which the melting point was -101 °C. Take `O=C1Cc2cc(Br)ccc2N1`: the melting point is 219 to 221 °C. Under `COc1ccc(Br)c(C(=O)NN)c1` stands 165 to 166 °C; under `O=S(=O)(O)c1cccc2cnccc12`, 300 °C; under `CCCCOCCOCCO`, -68 °C. Under `COC(=O)c1cc(OCC(F)(F)F)ccc1OCC(F)(F)F` stands 40 to 41 °C; under `Cn1ncc(C=O)c1N`, 161 to 163 °C. Under `CCOP(=O)(OCC)Oc1c2cccc1Cc1cccc(c1O)Cc1cccc(c1OP(=O)(OCC)OCC)Cc1cccc(c1O)C2` stands 219 to 224 °C. Compound `CNC(=O)Oc1ccc(C)c(C)c1` yielded a melting point of 79.5 °C. As for `NC(=S)CNC(=O)OCc1ccccc1`, the figure is 144 to 146 °C; as for `Cc1ccc(N)c(O)c1`, 157 °C.

The compound `O=c1[nH]c(=O)n(-c2cccc(C(F)(F)F)c2)c2c1CCCC2` returned a melting point of 252 to 255 °C. Compound `Cn1c(=O)c(C2=NNC(=O)C2=CNc2cccnc2)c(O)c2ccccc21` registered a melting point of 281 °C. `CC(=O)OOC(C)=O` gave a melting point of 30 °C. Under `Clc1ccc(C2Nn3c(nnc3-c3ccccc3)S2)cc1` (centres undefined) stands 196 to 198 °C; under `CCCCCCc1ccc(C(=O)Oc2ccc(C#N)cc2)cc1`, 46 °C.

`C=C(C)C1CCC2(CO)CCC3(C)C(CCC4C5(C)CCC(O)C(C)(C)C5CCC43C)C12` (centres undefined) showed a melting point of 250 °C. As for `CCOC(=O)c1cn2ccccc2n1`, the figure is 80 to 83 °C; as for `Brc1ccc(Oc2cc(Br)c(Br)cc2Br)c(Br)c1`, 82 °C; as for `C=CC=c1c(=CC)c(O)c(C2=NNC(=O)C2=CNc2ccncc2)c(=O)n1C`, 238 °C. Take `Cc1ccc(C(C)(C)C)c(O)c1`: the melting point was 46.5 °C. `CC1=CCCC1C` (centres undefined) yielded a melting point of -118 °C. In the case of `ClC1Cc2cc3c(cc21)OCO3` (centres undefined), the melting point was found to be 55 °C. Under `O=C(O)c1cnc(Cl)c(Cl)c1` stands 163 to 168 °C; under `CCCNC(N)=S`, 120 to 123 °C. `O=C1CCCc2ccc(Br)cc21`: the melting point is 78 to 79 °C. As for `O=C(/C(=N/Nc1cccnc1)C(=O)C(F)(F)F)c1cccs1`, the figure is 150 °C; as for `CN1CCN(C(=S)SSC(=S)N2CCN(C)CC2)CC1`, 142 to 143 °C. `COc1cc2ccc(N(C)S(=O)(=O)c3ccc(C)cc3)cc2[nH]1`: the melting point came out at 203 °C. Under `CCCOC(=O)C1=C(C)NC(C)=C(C(=O)OCCC)C1c1cccc(OC)c1O` stands 166 to 168 °C; under `O=S(=O)(c1ccccc1)N1CCNCC1`, 111 to 112 °C; under `O=C(O)c1cccc2cc[nH]c12`, 202 to 204 °C.

For `Cc1cc2ccccc2cc1CCl`, the melting point turned out to be 65 °C. As for `Nc1cc(Cl)c(Cl)c(Cl)c1`, the figure is 99 °C; as for `Cc1ccc(S(=O)(=O)OCC2CCC(=O)N2)cc1` (centres undefined), 122 to 129 °C.

Take `O=CC(Br)=Cc1ccccc1`: the melting point was 70 °C.

The compound `O=C(O)C(Br)=C(Br)C(=O)O` registered a melting point of 119 to 125 °C. Under `N#CC1(C(=O)c2ccccc2)C(c2ccccc2)NC(=O)NC1c1ccccc1` (centres undefined) stands 215 to 216 °C. As for `Clc1cc(Cl)c(I)cc1Cl`, the melting point was found to be 104 °C. Under `c1cncc(-c2nc3ccccc3[nH]2)c1` stands 257 °C; under `Clc1ccc2c(c1)Oc1c(Cl)c(Cl)c(Cl)c(Cl)c1O2`, 195 °C; under `CC1CCC(C)(COC(=O)c2ccc([N+](=O)[O-])cc2)C1(C)C` (centres undefined), 95 °C. Under `CCCCCNc1cc(=O)oc2ccccc12` stands 163 °C; under `N#C/C(=N\Nc1ccc(Cl)cc1Cl)c1nc(-c2ccc(Cl)cc2)cs1`, 246 °C; under `S=c1cc(-c2ccccc2)oc(-c2ccccc2)c1`, 170 °C. Under `CCOC(=O)C1CN(Cc2ccco2)C(=O)C1=O` (centres undefined) stands 127 to 129 °C; under `c1ccc(CC(c2ccccc2)c2ccccc2)cc1`, 52 °C; under `COc1ccc(C=C2C(=O)OC(C)(C)OC2=O)cc1OC`, 164 °C.

Consider `O=C(O)[C@H]1[C@H](C(=O)O)[C@H]2C=C[C@@H]1C2`, for which the melting point stood at 185 °C. On to `S=C1NC2=C(CCCC2=Cc2ccccc2)C(c2ccccc2)N1` (centres undefined), for which the melting point was in the range of 190 to 192 °C. As for `Oc1cc(C(F)(F)F)nc2c(F)cccc12`, the figure is 113 °C. For `Oc1ccccc1C1Nn2c(COc3ccccc3)nnc2S1` (centres undefined), the melting point is 217 °C. Under `CC1CC(=O)c2c(F)c(F)cc3c(=O)c(C(=O)O)cn1c23` (centres undefined) stands 323 to 325 °C; under `CN1CC[C@@H](c2ccc(F)cc2)[C@H](CO)C1`, 97 to 101 °C. Regarding `C/C=C/C=C(C)/C=N/Nc1ccc([N+](=O)[O-])cc1[N+](=O)[O-]`, the melting point fell in the range of 198 to 200 °C. As for `O=Cc1ccc(-c2ccc(C(F)(F)F)cc2Cl)o1`, the figure is 86 to 87 °C; as for `CCCN(CCC)S(=O)(=O)c1ccc(C(=O)O)cc1`, 198 °C. Under `c1ccc2c3c([nH]c2c1)CCCCC3` stands 145 °C; under `CC(C)c1ccc(C=C[N+](=O)[O-])cc1`, 35 to 38 °C.

One may read the melting point as the temperature, or range, at which the solid turns liquid.
